The values below come from article PMC3131604, “The Inhibitory Effect of Non-Steroidal Anti-Inflammatory Drugs (NSAIDs) on the Monophenolase and Diphenolase Activities of Mushroom Tyrosinase” (International Journal of Molecular Sciences, 2011).

In assay [1] the target is T1, mushroom tyrosinase (Agaricus bisporus, UniProt C7FF04). Description: diphenolase activity assay of mushroom tyrosinase (L-DOPA as substrate). It is filed as biochemical. The note with it: for KIS, diphenolase: Lineweaver-Burk / secondary plots; for Inhibition type, diphenolase activity: Lineweaver-Burk plots; for activity at 50 µM: at 0.05 mM; for activity at 50 µM / activity at 100 µM / activity at 200 µM / activity at 500 µM / activity at 1000 µM: read-out: diphenolase activity in presence of inhibitor; for activity at 100 µM: at 0.1 mM; for activity at 500 µM: at 0.5 mM; for activity at 1000 µM: at 1.0 mM. The protocol: The diphenolase activity assay was performed as previously described. First, 300 μL of 2.5 mM 3,4-dihydroxyphenylalanine (L-DOPA) solution, 50 μL of DMSO with or without a sample chemical, and 1.1 mL of 0.1 M phosphate buffer (pH 6.8) were mixed. The mixture was preincubated at 25 °C for 10 min before 50 μL of 1000 units/mL mushroom tyrosinase in aqueous solution was added, and the reaction was monitored at 475 nm. A control reaction was conducted in DMSO alone. The percentage of activity of tyrosinase was calculated as follows: 100 − [(A − B)/A × 100], where A represents the difference in the absorbance of the control sample between an incubation time of 0.5 and 1.0 min, and B represents the difference in the absorbance of the test sample over the same incubation period.
(§1) The inhibition type of NSAIDs on the monophenolase and diphenolase activity was determined by the Lineweaver-Burk plots and the inhibition constants were determined from secondary plots of the apparent Km/Vmax versus the concentration of the inhibitor.

In assay [2] the test system is B16F1 melanoma cells. The note with it: cited from earlier work.
The target in assay [3] is T1, mushroom tyrosinase. Put plainly: monophenolase activity assay of mushroom tyrosinase (L-tyrosine as substrate). It is filed as biochemical. To be noted: for effect on lag time of monophenolase activity: 0.25-1.0 mM inhibitor; for Inhibition type, monophenolase activity: Lineweaver-Burk plots; for activity at 250 µM: at 0.25 mM; for activity at 250 µM / activity at 500 µM / activity at 750 µM / activity at 1000 µM: read-out: monophenolase activity (steady-state rate) in presence of inhibitor; for activity at 500 µM: at 0.5 mM; for activity at 750 µM: at 0.75 mM; for activity at 1000 µM: at 1.0 mM; for KIS (inhibitor binding with the enzyme-substrate complex), monophenolase: secondary plot of Lineweaver-Burk slopes. The method, then: The monophenolase activity assay was performed with modification as reported by Chen et al.. In this assay, L-tyrosine was used as substrate in the monophenolase activity assay. First, 300 μL of 2.5 mM L-tyrosine, 25 μL of DMSO with or without a sample chemical, and 300 μL of 0.1 M phosphate buffer (pH 6.8) were mixed. The mixture was preincubated at 37 °C for 10 min before 125 μL of 1000 units/mL mushroom tyrosinase in aqueous solution added, and the reaction was performed at 37 °C. Enzyme activity was monitored at 475 nm by a UV spectrophotometer (Shimadzu, UV-1700). The lag time was determined by extrapolation of the linear portion of the dopachrome accumulation curve to the abscissa axis.
as §1

Each structure is given as a SMILES string. Where two headings read alike, the source gives them in different places.

T1 sequence (C7FF04 1-392): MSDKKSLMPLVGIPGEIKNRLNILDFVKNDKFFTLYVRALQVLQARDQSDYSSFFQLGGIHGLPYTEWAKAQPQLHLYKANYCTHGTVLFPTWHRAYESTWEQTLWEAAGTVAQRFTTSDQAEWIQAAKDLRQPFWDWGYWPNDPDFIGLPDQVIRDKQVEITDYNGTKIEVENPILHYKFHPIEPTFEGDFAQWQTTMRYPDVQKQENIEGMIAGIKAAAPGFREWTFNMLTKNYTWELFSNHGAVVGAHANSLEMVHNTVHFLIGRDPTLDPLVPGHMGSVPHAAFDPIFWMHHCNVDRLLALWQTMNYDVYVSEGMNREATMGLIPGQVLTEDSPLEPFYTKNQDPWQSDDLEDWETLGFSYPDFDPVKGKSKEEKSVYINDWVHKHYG
T1 sequence (G1K3P4 1-150 partner): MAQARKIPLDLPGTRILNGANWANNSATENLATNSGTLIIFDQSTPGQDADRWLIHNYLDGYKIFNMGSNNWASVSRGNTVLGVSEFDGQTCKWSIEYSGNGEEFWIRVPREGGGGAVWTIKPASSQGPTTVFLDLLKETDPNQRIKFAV

Broadly, the inhibition is the drop in the measured response relative to a control, in per cent. With `CC(=O)Oc1ccccc1C(=O)O` [Acetylsalicylic acid, acetylsalicylic acid], in assay [1] (L-DOPA substrate), the “inhibition of diphenolase activity (in words)” value (“inhibition … (in words)” for short) is recorded as “did not inhibit”. Moreover, the inhibition at 4000 µM in assay [1] (at 4 mM) was -6%. In addition, in assay [2] (B16F1 melanoma cells ref 23), the effect on melanogenesis entry is on record as “inhibits melanogenesis” and the “effect on tyrosinase protein expression” value is “down-regulates”.

Turning to `O=C(O)Cc1ccccc1Nc1c(Cl)cccc1Cl` [Diclofenac, diclofenac], in assay [3] (at 4 mM), the inhibition at 4000 µM is 25%. Further, in assay [2], the effect on melanogenesis entry is “inhibit melanogenesis”.

Turning to `O=C(O)c1cc(-c2ccc(F)cc2F)ccc1O` [Diflunisal, diflunisal], in assay [3], the “effect on lag time of monophenolase activity” value was “extended”; the “Inhibition type, monophenolase activity” value was “Non-competitive”; the activity at 250 µM was around 45%; the activity at 500 µM is around 34%. Further, in assay [3], the activity at 750 µM is around 27%; the activity at 1000 µM is around 20%; the “KIS (inhibitor binding with the enzyme-substrate complex), monophenolase” value worked out at 0.11 mM. Also, in assay [1], the “KIS, diphenolase” value came to 0.19 mM; the “Inhibition type, diphenolase activity” value was “Non-competitive”; the activity at 50 µM was around 77%; the activity at 100 µM was around 63%. Further, in assay [1], the activity at 500 µM is around 32% and the activity at 1000 µM is around 20%. Further, the activity at 200 µM in assay [1] (at 0.2 mM) was around 49%.

For the compound `CC(C)Cc1ccc(C(C)C(=O)O)cc1` (stereo not shown) [Ibuprofen, ibuprofen], the “inhibition … (in words)” value in assay [1] (L-DOPA substrate) is recorded as “did not inhibit”. In assay [1] (at 1 mM), the inhibition at 1000 µM turned out to be 8%.

As for `COc1ccc2c(c1)c(CC(=O)O)c(C)n2C(=O)c1ccc(Cl)cc1` [Indomethacin, indomethacin], in assay [3], the “effect on lag time of monophenolase activity” value is listed as “did not change”; the “Inhibition type, monophenolase activity” value was “Non-competitive”; the activity at 250 µM was around 84%; the activity at 500 µM is around 72%. Also, in assay [3], the activity at 750 µM is around 66%; the activity at 1000 µM is around 60%; the “KIS (inhibitor binding with the enzyme-substrate complex), monophenolase” value is listed as 0.75 mM. In addition, in assay [3] (ratio of IC50 values), the “IC50 of monophenolase activity relative to diphenolase activity” value is recorded as “about three times larger”. Also, in assay [1], the “KIS, diphenolase” value came to 2.42 mM; the “Inhibition type, diphenolase activity” value is on record as “Non-competitive”; the activity at 50 µM was around 89%; the activity at 100 µM is around 82%. In assay [1], the activity at 500 µM was around 50% and the activity at 1000 µM is around 32%. For the same compound, in assay [1] (at 0.2 mM), the activity at 200 µM is around 70%.

In the case of `Cc1cccc(Nc2ccccc2C(=O)O)c1C` [Mefenamic acid, mefenamic acid], in assay [3] (at 1 mM), the inhibition at 1000 µM is 9%. Also, in assay [1] (at 0.2 mM), the “inhibition … (in words)” value is given as “slightly inhibited”. The effect on melanogenesis result in assay [2] is on record as “inhibit melanogenesis”.
